# Data from the supplement of paper PMC10307832.
# Key:
# Assay in all cases: relative viability (nuclei count vs DMSO), 5 days (fraction); higher = more cells survive
# Entinostat + Pictilisib = compound: Nc1ccccc1NC(=O)c1ccc(CNC(=O)OCc2cccnc2)cc1 [Entinostat] + CS(=O)(=O)N1CCN(Cc2cc3nc(-c4cccc5[nH]ncc45)nc(N4CCOCC4)c3s2)CC1 [Pictilisib] (partner 1 µM)
# Method in brief: (§1)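 Lung cancer cell lines were pin-tool dosed in 1536-well plates on the day after seeding, with either a lone drug or a fixed anchor-drug dose plus five library-drug doses (not always all listed) in √10 steps. Nuclei were counted on 4× images after 5 days. Relative viability is the ratio of treated-well to vehicle-well nuclei counts, with each value a median of duplicate plates.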
# [1] = compound: C1COCCN1C2=NC(=NC3=C2OC4=C3C=CC=N4)C5=CC(=CC=C5)NC(=O)C6=CN=C(C=C6)N + CS(=O)(=O)CCNCc1ccc(-c2ccc3ncnc(Nc4ccc(OCc5cccc(F)c5)c(Cl)c4)c3c2)o1 [Lapatinib] (partner 2 µM)
# Method in brief: as §1
# [2] = compound: C1COCCN1C2=NC(=NC3=C2OC4=C3C=CC=N4)C5=CC(=CC=C5)NC(=O)C6=CN=C(C=C6)N + CCNC(=O)c1noc(-c2cc(C(C)C)c(O)cc2O)c1-c1ccc(CN2CCOCC2)cc1 [Luminespib] (partner 0.01 µM)
# Method in brief: as §1
# [3] = compound: C1COCCN1C2=NC(=NC3=C2OC4=C3C=CC=N4)C5=CC(=CC=C5)NC(=O)C6=CN=C(C=C6)N + NC(=O)Nc1cc(-c2cccc(F)c2)sc1C(=O)N[C@H]1CCCNC1 [AZD7762] (partner 0.2 µM)
# Method in brief: as §1
Cell Line,relative viability (Entinostat + Pictilisib; first compound 0.02 µM),relative viability (Entinostat + Pictilisib; first compound 0.06325 µM),relative viability (Entinostat + Pictilisib; first compound 0.2 µM),relative viability (Entinostat + Pictilisib; first compound 0.6325 µM),relative viability (Entinostat + Pictilisib; first compound 2 µM),relative viability ([1]; first compound 0.02 µM),relative viability ([1]; first compound 0.06325 µM),relative viability ([1]; first compound 0.2 µM),relative viability ([1]; first compound 0.6325 µM),relative viability ([1]; first compound 2 µM),relative viability ([2]; first compound 0.02 µM),relative viability ([2]; first compound 0.06325 µM),relative viability ([2]; first compound 0.2 µM),relative viability ([2]; first compound 0.6325 µM),relative viability ([2]; first compound 2 µM),relative viability ([3]; first compound 0.02 µM),relative viability ([3]; first compound 0.06325 µM),relative viability ([3]; first compound 0.2 µM),relative viability ([3]; first compound 0.6325 µM),relative viability ([3]; first compound 2 µM)
NCI-H1650,0.65,0.67,0.554,0.407,0.248,0.791,0.792,0.7,0.775,0.613,0.186,0.202,0.198,0.233,0.166,–,–,–,–,–
NCI-H520,0.327,0.284,0.32,0.282,0.275,0.874,1.03,0.897,0.852,0.441,0.224,0.21,0.244,0.233,0.201,–,–,–,–,–
HCC-366,0.163,0.232,0.168,0.194,0.082,1.35,1.04,0.95,1.03,0.453,–,–,–,–,–,0.329,0.419,0.213,0.216,0.174
NCI-H522,–,–,–,–,–,–,–,–,–,–,0.993,1.23,1.13,0.986,0.719,0.708,0.867,0.773,0.834,0.684
IA-LM,0.391,0.43,0.508,0.311,0.133,0.848,0.67,0.621,0.588,0.276,–,–,–,–,–,–,–,–,–,–
SW 900,–,–,–,–,–,–,–,–,–,–,0.203,0.166,0.172,0.152,0.174,0.63,0.606,0.505,0.522,0.429
NCI-H661,0.47,0.614,0.559,0.565,0.407,0.53,0.554,0.525,0.351,0.406,0.894,0.961,0.962,0.958,0.52,–,–,–,–,–
SK-MES-1,0.356,0.465,0.506,0.376,0.277,0.455,0.492,0.431,0.424,0.312,0.736,0.907,0.816,0.657,0.494,–,–,–,–,–
EBC-1,0.313,0.363,0.193,0.12,0.0976,0.178,0.212,0.216,0.17,0.268,–,–,–,–,–,–,–,–,–,–
NCI-H441,0.369,0.429,0.402,0.208,0.172,–,–,–,–,–,0.284,0.314,0.324,0.501,0.25,0.96,1.17,1.1,1.09,0.738
